Assay results taken from PubChem BioAssay AID668 (University of Pittsburgh Molecular Library Screening Center, 2007).

Target: M-phase inducer phosphatase 2 (Homo sapiens) (UniProt P30305)
Test: Cdc25B phosphatase inhibitors with catalase present, dose response, biochemical, probe assessment (AID 668)
Conditions: recombinant Cdc25B catalytic domain, phosphatase activity

M-phase inducer phosphatase 2 (Homo sapiens), sequence (P30305 whole entry, looked up): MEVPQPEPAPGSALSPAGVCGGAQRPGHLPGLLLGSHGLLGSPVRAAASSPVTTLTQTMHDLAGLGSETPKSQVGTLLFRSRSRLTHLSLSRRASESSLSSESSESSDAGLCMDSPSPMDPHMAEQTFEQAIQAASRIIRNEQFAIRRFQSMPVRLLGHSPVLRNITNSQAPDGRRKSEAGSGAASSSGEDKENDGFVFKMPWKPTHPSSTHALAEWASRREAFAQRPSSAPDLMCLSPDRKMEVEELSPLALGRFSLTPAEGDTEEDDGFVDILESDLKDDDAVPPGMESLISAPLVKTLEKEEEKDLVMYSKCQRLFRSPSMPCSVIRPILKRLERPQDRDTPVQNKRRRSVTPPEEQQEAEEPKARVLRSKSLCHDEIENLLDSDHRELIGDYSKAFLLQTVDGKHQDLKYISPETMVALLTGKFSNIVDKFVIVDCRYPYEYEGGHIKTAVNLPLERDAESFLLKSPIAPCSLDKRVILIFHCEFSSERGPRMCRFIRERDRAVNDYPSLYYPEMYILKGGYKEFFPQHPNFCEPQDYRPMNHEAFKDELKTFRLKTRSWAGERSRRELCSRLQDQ

Row | IC50 | Compound
1 | 15.7 µM | c1ccc(CSc2nnc(-c3ccco3)c(-c3ccco3)n2)cc1
2 | 7.11 µM | COc1cccc2c(C)c(C(=O)O)[nH]c12
